Test results as given in patent US20020137929A1, “1 - (3-heterocyclylphenyl) isothiourea, -isourea, -guanidine and -amidine herbicidal agents” (Intellectual Property Department, BASF Aktiengesellschaft, priority 1998, published 2002).

How the values were obtained:
ABUTH (Velvetleaf) = assay: Postemergence herbicidal evaluation; type: in vivo, Abutilon theophrasti; details: postemergence
Method in brief: (§1)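 Young plants, roughly two weeks from seeding, receive the active ingredient as a sprayed dispersion (acetone/water 50/50, 0.5% TWEEN 20) at 40 psi. Doses span about 0.0156 to 0.500 kg/ha. A visual score from 0 to 9 compares treated with control plants four to five weeks on.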

AMBEL (Ragweed, Common) = assay: Postemergence herbicidal evaluation; type: in vivo, Ambrosia artemisifolia; details: postemergence
Method in brief: as §1

[1] = system: IPOHE (Morningglory, Ivyleaf); assay: Postemergence herbicidal evaluation; type: in vivo, Ipomoea hederacea; details: postemergence
Method in brief: as §1

ECHCG (Barnyardgrass) [2] = assay: Postemergence herbicidal evaluation; type: in vivo, Echinochloa crus-galli; details: postemergence
Method in brief: as §1

SETVI (Foxtail, Green) = assay: Postemergence herbicidal evaluation; type: in vivo, Setaria viridis; details: postemergence
Method in brief: as §1

[3] = system: GLXMAW (Soybean, Williams); assay: Postemergence herbicidal evaluation; type: in vivo, Glycine max, (L.) Merr. cv Williams; details: postemergence
Method in brief: as §1

[4] = system: TRZAWR (Wheat, Winter, cv Riband); assay: Postemergence herbicidal evaluation; type: in vivo, Triticum aestivum; details: postemergence
Method in brief: as §1

CASOB (Sicklepod) = assay: Preemergence herbicidal evaluation; type: in vivo, Cassia obtusifolia; details: rated 4-5 weeks after treatment
Method in brief: (§2)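 Herbicidal effect scored visually, 0-9, at 4 to 5 weeks against a control; compound applied preemergence by aqueous acetone spray to seeded soil at about 0.0156 to 0.500 kg/ha.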

[5] = system: CHEAL (Lambsquarters, Common); assay: Preemergence herbicidal evaluation; type: in vivo, Chenopodium album; details: rated 4-5 weeks after treatment
Method in brief: as §2

GALAP (Galium) = assay: Preemergence herbicidal evaluation; type: in vivo, Galium aparine; details: rated 4-5 weeks after treatment
Method in brief: as §2

[6] = system: IPOHE (Morningglory, Ivyleaf); assay: Preemergence herbicidal evaluation; type: in vivo, Ipomoea hederacea; details: rated 4-5 weeks after treatment
Method in brief: as §2

ECHCG (Barnyardgrass) [7] = assay: Preemergence herbicidal evaluation; type: in vivo, Echinochloa crus-galli; details: rated 4-5 weeks after treatment
Method in brief: as §2

ZEAMX (Corn, Field) = assay: Preemergence herbicidal evaluation; type: in vivo, Zea mays; details: rated 4-5 weeks after treatment
Method in brief: as §2

Cn1c(C(F)(F)F)cc(=O)n(-c2cc(N=C3SCC(=O)N3CC(=O)OCC3CC3)c(Cl)cc2F)c1=O [Compound 124, Cyclopropylmethyl 2-{{2-chloro-5-[3,6-dihydro-3-methyl-2,6-dioxo-4-(trifluoromethyl)-1(2H)-pyrimidinyl]-4-fluorophenyl}imino}-4-oxo-3-thiazolidineacetate]
3.7: herbicidal rating TRZAWR ([4]; rate 0.0156 kg/ha)
6.0: Preemergence herbicidal rating GALAP (GALAP (Galium); rate 0.2500 kg/ha) | Preemergence herbicidal rating IPOHE ([6]; rate 0.5000 kg/ha)
6.7: herbicidal rating GLXMAW ([3]; rate 0.0156 kg/ha)
9.0: herbicidal rating ABUTH (ABUTH (Velvetleaf); rate 0.0313 kg/ha) | herbicidal rating ABUTH (ABUTH (Velvetleaf); rate 0.0625 kg/ha) | herbicidal rating AMBEL (AMBEL (Ragweed, Common); rate 0.0156 kg/ha) | herbicidal rating AMBEL (AMBEL (Ragweed, Common); rate 0.0313 kg/ha) | herbicidal rating AMBEL (AMBEL (Ragweed, Common); rate 0.0625 kg/ha) | herbicidal rating IPOHE ([1]; rate 0.0156 kg/ha) | herbicidal rating IPOHE ([1]; rate 0.0313 kg/ha) | herbicidal rating IPOHE ([1]; rate 0.0625 kg/ha) | Preemergence herbicidal rating CHEAL ([5]; rate 0.0156 kg/ha) | Preemergence herbicidal rating CHEAL ([5]; rate 0.0313 kg/ha) | Preemergence herbicidal rating CHEAL ([5]; rate 0.0625 kg/ha) | Preemergence herbicidal rating CHEAL ([5]; rate 0.1250 kg/ha) | Preemergence herbicidal rating CHEAL ([5]; rate 0.2500 kg/ha) | Preemergence herbicidal rating CHEAL ([5]; rate 0.5000 kg/ha)
5.0: herbicidal rating ECHCG (ECHCG (Barnyardgrass) [2]; rate 0.0625 kg/ha) | herbicidal rating SETVI (SETVI (Foxtail, Green); rate 0.0313 kg/ha) | herbicidal rating SETVI (SETVI (Foxtail, Green); rate 0.0625 kg/ha) | herbicidal rating TRZAWR ([4]; rate 0.0625 kg/ha)
3.0: herbicidal rating ECHCG (ECHCG (Barnyardgrass) [2]; rate 0.0156 kg/ha) | herbicidal rating ECHCG (ECHCG (Barnyardgrass) [2]; rate 0.0313 kg/ha) | herbicidal rating SETVI (SETVI (Foxtail, Green); rate 0.0156 kg/ha) | Preemergence herbicidal rating CASOB (CASOB (Sicklepod); rate 0.2500 kg/ha)
0.0: Preemergence herbicidal rating CASOB (CASOB (Sicklepod); rate 0.0156 kg/ha) | Preemergence herbicidal rating CASOB (CASOB (Sicklepod); rate 0.0313 kg/ha) | Preemergence herbicidal rating CASOB (CASOB (Sicklepod); rate 0.1250 kg/ha) | Preemergence herbicidal rating CASOB (CASOB (Sicklepod); rate 0.5000 kg/ha) | Preemergence herbicidal rating GALAP (GALAP (Galium); rate 0.0156 kg/ha) | Preemergence herbicidal rating GALAP (GALAP (Galium); rate 0.0313 kg/ha) | Preemergence herbicidal rating GALAP (GALAP (Galium); rate 0.0625 kg/ha) | Preemergence herbicidal rating GALAP (GALAP (Galium); rate 0.1250 kg/ha) | Preemergence herbicidal rating IPOHE ([6]; rate 0.0156 kg/ha) | Preemergence herbicidal rating IPOHE ([6]; rate 0.0313 kg/ha) | Preemergence herbicidal rating IPOHE ([6]; rate 0.0625 kg/ha) | Preemergence herbicidal rating IPOHE ([6]; rate 0.1250 kg/ha) | Preemergence herbicidal rating ECHCG (ECHCG (Barnyardgrass) [7]; rate 0.0156 kg/ha) | Preemergence herbicidal rating ECHCG (ECHCG (Barnyardgrass) [7]; rate 0.0313 kg/ha) | Preemergence herbicidal rating ECHCG (ECHCG (Barnyardgrass) [7]; rate 0.0625 kg/ha) | Preemergence herbicidal rating ECHCG (ECHCG (Barnyardgrass) [7]; rate 0.1250 kg/ha) | Preemergence herbicidal rating ECHCG (ECHCG (Barnyardgrass) [7]; rate 0.2500 kg/ha) | Preemergence herbicidal rating ZEAMX (ZEAMX (Corn, Field); rate 0.0156 kg/ha) | Preemergence herbicidal rating ZEAMX (ZEAMX (Corn, Field); rate 0.0313 kg/ha) | Preemergence herbicidal rating ZEAMX (ZEAMX (Corn, Field); rate 0.0625 kg/ha) | Preemergence herbicidal rating ZEAMX (ZEAMX (Corn, Field); rate 0.1250 kg/ha) | Preemergence herbicidal rating ZEAMX (ZEAMX (Corn, Field); rate 0.2500 kg/ha)
4.3: herbicidal rating TRZAWR ([4]; rate 0.0313 kg/ha)
7.3: herbicidal rating GLXMAW ([3]; rate 0.0313 kg/ha)
1.0: Preemergence herbicidal rating CASOB (CASOB (Sicklepod); rate 0.0625 kg/ha) | Preemergence herbicidal rating IPOHE ([6]; rate 0.2500 kg/ha) | Preemergence herbicidal rating ECHCG (ECHCG (Barnyardgrass) [7]; rate 0.5000 kg/ha) | Preemergence herbicidal rating ZEAMX (ZEAMX (Corn, Field); rate 0.5000 kg/ha)
7.0: herbicidal rating ABUTH (ABUTH (Velvetleaf); rate 0.0156 kg/ha) | herbicidal rating GLXMAW ([3]; rate 0.0625 kg/ha) | Preemergence herbicidal rating GALAP (GALAP (Galium); rate 0.5000 kg/ha)
